Where two headings read alike, the source gives them in different places.
Tests used:
control fibroblasts = details: after 100 MM TEA addition, control cells n=4
Protocol: (§1) Patch-clamp experiments were performed at room temperature (21-23° C.), following standard procedures set forth in Sakmann, B. and Neher, E. (1983) Single Channels Recordings (Plenum New York) and Kukuljan, M., et al. (1991) J. Membrane Biol. 119:187. Before recordings, […] culture medium was replaced with the following solution: 150 mM NaCl, 5 mM KCl, 2 mM CaCl2, 1 MM MgCl2, 10 mM HEPES […] pH=7.4. Pipettes were made from Blue Tip capillary tubes (I.D. 1.1-1.2 mm) using a BB-CH Mecanex puller, and then filled with a high potassium solution of 140 mM KCl, 2 mM CaCl2, 1 mM MgCl2, 10 mM HEPES (NaOH), pH=7.4. Pipette resistances were approximately 6 MΩ. Records were obtained using an Axopatch-1C amplifier (dc-10 kHz), stored on tape (Toshiba PCM-video recorder), and later transferred to a personal computer using an Axolab interface. Only recordings lasting for at least 3 minutes were considered for final analysis. The pClamp suite of programs was used for single-channel data acquisition and analysis. Amplifier, interface and software were obtained from Axon Instruments (Foster City, Calif.).

[1] = test system: human skin fibroblasts (AD, AC, YC); details: for TEA Response Blind / TEA Response Non Blind: one cell line per table line
Protocol: Thirteen AD, ten AC, and six YC were used for the calcium-imaging experiments. Culture medium was replaced and washed three times with basal salt solution (“BSS”) consisting of 140 mM NaCl, 5 mM KCl2.5 mM CaCl2, 1.5 mm MgCl2, 5 mM glucose, 10 mM HEPES (NaOH), pH 7.4. Nominally Ca^2+ free BSS was prepared as BSS without adding CaCl2.
Fura-2 (acetyloxymethyl ester) (Fura-2AM) was purchased from Molecular Probes (Eugene, Oreg.) and stored as a 1 mM solution in dimethylsulfoxide. Fura-2AM was added to a final concentration of 2 µM and cells were incubated at room temperature (21°-23° C.) for 60 minutes. After incubation, cells were washed at least three times with BSS at room temperature before [Ca^2+]i determinations. Fluorescence was measured with a Hamamatsu ARGUS 50 imaging system (Hamamatsu Photonics, Japan) under the control of a personal computer (Hamamatsu imaging software package). Excitation at 340 nm and 380 nm was attenuated with neutral density filters. Fluorescent images were obtained with a 400 nm dichroic mirror and a 510 nm long-pass barrier filter. The objective lens was an X10 Nikon UV fluor. Fluorescence was measured within a uniformly illuminated fraction (¼) of the whole image.
The averaged Ca^2+ responses within 15×15 pixels in cytosolic and in nuclear cellular compartments obtained were quantified with ratios between emitted 510 nm fluorescence activated at 340 nm and fluorescence emitted at 510 nm with activation at 380 nm. These ratios were transformed to absolute values of [Ca^2+], after calibration based on the following equation:
R=Rmax+(Rmin−Rmax)/(1+([Ca^2+]i/Kd)^b).
Here R denotes fluorescence intensity illuminated by 340 nm divided by fluorescence intensity illuminated by 380 nm (F340/F380), and Rmax and Rmin are the values of R when the concentration of calcium is at a maximum and a minimum (i.e., the maximum and minimum value measurable by the machine under the measuring conditions), respectively. Kd is a dissociation constant of fura-2 for Ca^2+ and was determined as 240 nM. The value of b, which determined the degree of asymmetry, was 1.2. […] A response of 100% [Ca^+2]i elevation in at least 10% of cells in a line was, therefore, considered to be a conservative criterion for a positive response.

166 pS K^+ channel = experiment: Patch-clamp, cell-free patches: channel sensitivity to blockers; format: cell-based, human; details: outside-out patches
Protocol: as §1

113 pS K^+ channel = experiment: as above; format: cell-based, human; details: outside-out patches, n=4 YC, n=3 AC
Protocol: as §1

[2] = test system: cultured fibroblasts (AD, controls, Es)
Protocol: Culture medium was removed and cells were washed at least three times with BSS (in mM: NaCl 140, KCl 5, CaCl2 2.5, MgCl2 1.5, HEPES 10, Glucose 5, pH=7.4). The fluorescent probe was loaded by incubating the cells in 2 μM (in BSS) fura 2-AM (Molecular Probes) for 60 min at room temperature. After loading, cells were washed thoroughly with BSS or BSS-0 Ca^2+ (in mM: NaCl 140, KCl 5, CaCl2 0.1, MgCl2 1.5, EGTA 1, HEPES 10, Glucose 5, pH=7.4). After washes, 1 ml of fresh solution was added for intracellular Ca^2+ baseline measurements. […] This solution was adjusted in order to introduce no osmolality changes. […] Bradykinin (Calbiochem) in BSS and BSS-0 Ca^2+ (1 ml) was also used at concentrations of 100 pM, 1 nm and 10 nM. Fluorescent images at 340 and 380 nm were acquired at a rate of 2.6/sec. for 200 sec, with a Hamamatsu Argus 50 system (Hamamatsu Photonics). The objective lens was a 10×Nikon fluor. Only the ¼ evenly illuminated area of the whole image was acquired. Individual ratio values were obtained off-line for all cells within the area of interest. Three to five dishes of a given cell line were used for each experimental condition. The number of cells measured per cell line was at least 50. In most cases, experiments for each cell line were repeated on at least one separate occasion (minimum one week interval).

[3] = test system: neuropathological non-AD fibroblasts
[4] = 100 mM TEA, Age-Matched Control Fibroblasts
[5] = 100 mM TEA, Young Control Fibroblasts
[6] = Alzheimer's Patients, total 738 cells
[7] = Young Controls, total 532 cells

For `CC[N+](CC)(CC)CC` [TEA, tetraethylammonium], the “depolarization of control cells” value (control fibroblasts) was 13-20 mV, the “[Ca^2+]i elevation in response to TEA” value ([1]; 1 mM TEA, YC fibroblasts) was “elevated” and the “[Ca^2+]i elevation in response to TEA” value ([1]; 10 mM TEA, AC fibroblasts) was “elevated”. The “[Ca^2+]i elevation in response to TEA” value ([1]; 10 mM TEA, YC fibroblasts) was “elevated”, the “[Ca^2+]i elevation in response to TEA” value ([1]; 100 mM TEA, AC fibroblasts) was “elevated” and the “return of [Ca^2+]i to basal levels” value ([1]; 100 mM TEA, YC and AC fibroblasts) was 100 s. The “[Ca^2+]i elevation in response to TEA” value ([1]; 100 mM TEA, YC fibroblasts) was “elevated”, the “TEA Response Blind” value [1, 4] was “+” and the “TEA Response Non Blind” value [1, 4] was “+”. The “TEA Response Blind” value ([1]; 100 mM TEA, Alzheimer's Disease Fibroblasts) was “−”, the “TEA Response Non Blind” value ([1]; 100 mM TEA, Alzheimer's Disease Fibroblasts, criterion 100% elevation in at least 10% of cells) was “−” and the “TEA Response Blind” value [1, 5] was “+”. For the same compound, the “TEA Response Non Blind” value [1, 5] was “+”, the “Number of Cell Lines, Increase in [Ca^+2]i with 100 mM TEA” value (“Number of Cell Lines, Increase” below) ([1]; Aged Controls, total 10 cell lines) was 10 and the “Number of Cells, Increase in [Ca^+2]i with 100 mM TEA” value (from here on “Number of Cells, Increase in [Ca^+2]i”) ([1]; Aged Controls, total 417 cells) was 119. The “Percent of cells, Increase in [Ca^+2]i with 100 mM TEA” value (from here on “Percent of cells, Increase”) ([1]; Aged Controls, total 417 cells) was 29%, the “Number of Cell Lines, Increase” value ([1]; Alzheimer's Patients, total 13 cell lines) was 0 and the “Number of Cells, Increase in [Ca^+2]i” value [1, 6] was 4. For the same compound, the “Percent of cells, Increase” value [1, 6] was 0.5%, the “cells with a minimum of 100% [Ca^+2]i elevation” value ([1]; TEA application, every control cell line except one young control) was “at least 18 % of cells” and the “cells with 100% [Ca^+2]i elevation” value ([1]; TEA application, the only AD cell line with any response) was 4 % of cells. The “Number of Cell Lines, Increase” value ([1]; Young Controls, total 6 cell lines) was 5, the “Number of Cells, Increase in [Ca^+2]i” value [1, 7] was 145 and the “Percent of cells, Increase” value [1, 7] was 27%. The “sensitivity of the 166 pS channel to TEA” value (166 pS K^+ channel) was “only the 113 PS channel was sensitive”, the “sensitivity of the 113 pS channel to TEA” value (113 pS K^+ channel) was “sensitive” and the “% of responding cells in Es cell lines” value ([2]; 100 mM TEA, 3 Es cell lines) was “lower % of responding cells”. For the same compound, the “number of control cell lines with significant Ca^2+ elevations meeting CR” value ([2]; 100 mM TEA, 11 control cell lines) was 11, the “number of AD cell lines that did not meet CR” value ([2]; 100 mM TEA, 14 AD cell lines) was 10 and the “% of responding cells in AD cell lines compared to controls” value ([2]; TEA-induced responses) was “significantly reduced”. For the same compound, the TEA ([3]; Parkinson's donor cell line) was “+”, the TEA ([3]; Schizophrenia donors, one cell line per table line) was “+” and the TEA ([3]; Wernicke-Kors. donors, one cell line per table line) was “+”.
